Three molecules from patent US9145376B2, “Quinazolinone inhibitors of dynein” (The Rockefeller University, priority 2011, dated 2015) can be followed below.

One experiment deals with Xenopus melanophores. The experiment can be described thus: Melanosome aggregation assay. Format: cell-based. The conditions noted are these: for melanosome aggregation: melatonin-induced aggregation. An excerpt: Another cytoplasmic dynein 1-dependent process is the aggregation of melanin-containing vesicles in pigment cells, the mechanism by which certain organisms adapt their coloration in response to environmental cues. For example, cytoplasmic dynein 1 transports melanosomes toward the center of Xenopus melanophores stimulated with the small-molecule melatonin, counterbalancing the kinesin-2- and myosin-V-driven dispersal of these pigment granules toward the cell periphery in response to melanocyte-stimulating hormone (MSH). To determine if melanosome trafficking is sensitive to the ciliobrevins, we cultured Xenopus melanophores with MSH to uniformly disperse their melanosomes and then treated them with melatonin and various concentrations of test compounds.
Immortalized Xenopus melanophores were cultured in 0.7×L15 medium supplemented with 10% fetal bovine serum, 30 mg/L L-glutamine, and 5 mg/L insulin. The cell were cultured on poly-D-lysine-coated coverslips in 12-well plates for 12 to 24 hours prior to the melanosome aggregation assay. On the day of the experiment, the melanophores were cultured in serum-free medium for 30 minutes, stimulated with 100 nM melanocyte-stimulating hormone (MSH) to uniformly disperse the melanosomes, and then incubated with medium containing individual compounds or DMSO for 10 minutes. Melanosome aggregation was then induced by treating the cells with 10 nM melatonin in the presence of the test compound. The melanophores were either imaged immediately by time-lapse microscopy or fixed after 30 minutes with 0.7×PBS containing 4% paraformaldehyde.
The cells were then washed several times with medium containing melatonin alone and imaged.

Experiment [1] relates to Gli3 processing in Shh-EGFP cells. Kind of experiment: Quantitative assessment of Hh ligand-dependent Gli3 processing. Type of experiment: cell-based. To be noted: Shh-EGFP cells stimulated with Shh-N, 16 hours. The method, then: Shh-EGFP cells were seeded into 12-well plate at a density of 120,000 cells/well in DMEM containing 10% calf serum. 100 U/mL penicillin, and 0.1 mg/mL streptomycin. After being cultured for 24 hours, the cells were transferred into DMEM containing 0.5% calf serum, 10% Shh-conditioned medium, the antibiotics described above, and either individual compounds or DMSO. The cells were cultured for an additional 16 hours, washed with PBS, and then lysed by incubation on ice with SDS-PAGE loading buffer composed of 8% glycerol, 20 mM Tris-HCl, pH 6.8, 2% SDS, 100 mM DTT, 1 mM PMSF, 20 mM NaF, 2 mM Na3VO4, and an EDTA-free protease inhibitor cocktail (Roche). The lysed samples were heated to 100° C. for 7 minutes, loaded onto 3-8% Criterion XT Tris-Acetate polyacrylamide gels (Bio-Rad), electrophoresed in XT Tricine buffer (Bio-Rad), and transferred onto PVDF membranes. The membranes were dehydrated with methanol and probed overnight at 4° C. with goat polyclonal anti-Gli3 antibody (0.4 μg/mL: R & D Systems, AF3690) in PBS containing 4% non-fat dry milk and 0.1% Tween-20 (immunoblot blocking buffer). The blots were then washed 4×1 minutes in PBS and incubated with horseradish peroxidase-conjugated bovine polyclonal anti-goat IgG antibody (0.04 μg/mL, Jackson ImmunoResearch, 805-035-180) in immunoblot blocking buffer for 1 hour at room temperature. The membranes were next washed 4×1 minutes in PBS and visualized using SuperSignal West Dura Extended Duration substrate (Thermo Scientific) and a ChemiDoc XRS imaging system (Bio-Rad). Band intensities of Gli3FL and Gli3R where quantified using Quantity One software (Bio-Rad), and five independent experiments were used to determine the average Gli3FL/Gli3R ratio for each compound.

Experiment [2] has as its target T1, K560, N-terminal fragment of human conventional kinesin (kinesin-1) (Homo sapiens, UniProt P33176).
T1 construct: K560, a 560-amino acid N-terminal fragment of human conventional kinesin (kinesin-1); His-tag (C); made in house; host or cells: bacteria
T1 sequence (P33176 1-560): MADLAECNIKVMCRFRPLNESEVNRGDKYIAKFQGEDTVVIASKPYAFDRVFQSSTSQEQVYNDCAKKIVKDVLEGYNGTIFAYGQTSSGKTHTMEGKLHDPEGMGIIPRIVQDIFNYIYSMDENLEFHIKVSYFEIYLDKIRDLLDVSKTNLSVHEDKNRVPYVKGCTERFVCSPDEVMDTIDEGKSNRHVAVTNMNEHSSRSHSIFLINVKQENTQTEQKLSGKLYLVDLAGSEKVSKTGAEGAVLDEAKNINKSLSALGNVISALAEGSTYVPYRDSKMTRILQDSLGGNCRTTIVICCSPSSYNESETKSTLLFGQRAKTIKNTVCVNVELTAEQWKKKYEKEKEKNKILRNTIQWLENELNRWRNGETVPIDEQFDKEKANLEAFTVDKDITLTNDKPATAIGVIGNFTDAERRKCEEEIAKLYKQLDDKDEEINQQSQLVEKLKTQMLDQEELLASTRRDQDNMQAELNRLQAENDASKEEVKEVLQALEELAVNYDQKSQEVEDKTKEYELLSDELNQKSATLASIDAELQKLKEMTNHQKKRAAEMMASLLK
The experiment can be described thus: Microtubule surface gliding assay, K560/kinesin-1. The conditions noted are these: 100 μM. Format: biochemical. As to the method: Cytoplasmic dynein was purified from bovine brains as described by Bingham et al. [Methods Enzymol. 298, 171 (1998)]. K560, a 560-amino acid N-terminal fragment of human conventional kinesin (kinesin-1) with a C-terminal His-tag, was expressed in bacteria and purified as described by Woehlke et al., [Cell 90, 207 (1997)]. Motility assays were performed on a Zeiss Axiovert 200M wide-field microscope equipped with a Zeiss 100×/1.45 NA α-Plan-Fluar objective. Data were captured with an EM-CCD camera (iXon DU-897, Andor Technology) with a 0.3-second exposure time and frame rate of 0.5 second^−1. Microtubule gliding assays were performed as described by Kapoor and Mitchison [Proc. Natl. Acad. Sci. U.S.A. 96, 9106 (1999)] with some modifications. An approximately 6 μL flow chamber was filled with motor protein (100 μg/mL dynein or 50 μg/mL K560) in motor dilution buffer (80 mM Pipes, 1 mM EGTA, 2 mM MgCl2, 2 mM DTT, 50 μM ATP, pH 6.8 with KOH). […] After allowing the microtubules to bind to the surface for 5 minutes, the gliding microtubules were visualized by time-lapse fluorescence microscopy. Velocities were measured by kymography using Metamorph software (Molecular Devices), and the velocity for each microtubule was determined from the total distance during the time observed.

`N#C/C(C(=O)c1ccccc1)=C1\NC(=O)c2ccccc2N1` [Example 16, 3-oxo-2-(4-oxo-3,4-dihydroquinazolin-2(1H)-ylidene)-3-phenylpropanenitrile]: the melanosome aggregation result with Xenopus melanophores (concentrations up to 40 μM) is “no discernible effect”.

In the case of `N#C/C(C(=O)c1ccc(Cl)cc1Cl)=C1\NC(=O)c2ccc(Cl)cc2N1` [Example 31, 2-(7-chloro-4-oxo-3,4-dihydroquinazolin-2(1H)-ylidene)-3-(2,4-dichlorophenyl)-3-oxo-propanenitrile], in experiment [1], the Gli3FL/Gli3R ratio entry is on record as “altered the Gli3FL/Gli3R ratio” and the “Shh-N-dependent Gli3FL phosphorylation” value was “reduced”. Also, in the experiment on Xenopus melanophores (10 μM dose), the melanosome aggregation result was “significantly inhibited melanosome aggregation”. Also, the “reversibility of effect on melanosome aggregation (washout)” value in the experiment on Xenopus melanophores (washout into medium containing melatonin alone) is reported as “completely reversible”. Also, in experiment [2], the K560/kinesin-1-dependent microtubule gliding result is “Neither ciliobrevin significantly affected”.

As to `N#C/C(C(=O)c1ccc(Cl)cc1Cl)=C1\NC(=O)c2ccccc2N1` [Example 1, 3-(2,4-dichlorophenyl)-3-oxo-2-(4-oxo-3,4-dihydroquinazolin-2(1H)-ylidene)propanenitrile], in experiment [1], the Gli3FL/Gli3R ratio entry was “altered the Gli3FL/Gli3R ratio” and the “Shh-N-dependent Gli3FL phosphorylation” value was “reduced”. In experiment [2], the K560/kinesin-1-dependent microtubule gliding result was “Neither ciliobrevin significantly affected”.
